Measured values from PMC5720837, “Identification of a 4-fluorobenzyl L-valinate amide benzoxaborole (AN11736) as a potential development candidate for the treatment of Animal African Trypanosomiasis (AAT)” (Bioorganic & Medicinal Chemistry Letters, 2018).

Key:
[1] = system: Trypanosoma vivax (T. vivax STIB719/ILRAD 560 strain), bloodstream form; experiment: Whole cell Alamar Blue assay, T. vivax (48 h ex vivo); type: cell-based; details: T. vivax STIB719/ILRAD 560, 48 h ex vivo Alamar Blue assay; for IC50: Trypanosoma vivax
Method: (§1) Activity of compounds 1–71 against T. congolense and T. vivax was determined using the whole cell assays as described ^6 and their IC50 values are summarized in Table 1.
(§2) [6] Assay methods for determination of T. c. and T. v. […] Culture media consisted of complete HMI-9 (IMDM) with 20% bovine serum. To ensure log growth phase, trypanosomes were sub-cultured at appropriate dilutions every 2–3 days. Bloodstream form Trypanosoma vivax (T. vivax) cannot be cultured axenically, therefore trypanosomes (T. vivax STIB719/ILRAD 560 strain) were harvested from a highly parasitemia mouse via cardiac puncture and used directly in the ex vivo drug sensitivity assay on the same day. […] Parasite starting concentrations of 2 × 10^5 (T. c.) and 4 × 10^5 (T. v.) were calculated respectively, using a cell analyzer system or haemo-cytometer, followed by quantification at 536 nm excitation and 588 nm emission wavelengths using a […] reader. Test compounds were prepared as 10 mg/mL DMSO stocks for each assay run. Compounds were assayed in at least three separate, independent test runs and an 11-point dilution curve was used to determine the IC50 values. Data points were averaged to generate sigmoidal dose-response curves and IC50 values were determined using Softmax Pro 5.2 software.

[2] = system: T. c. parasites (STIB736/IL1180 strain); experiment: In vivo mouse model of T. congolense infection; design: species or system NMRI female mice; details: for Efficacy in mouse model T. c., n/m (mice survived / total mice in group): intraperitoneal, monitored 60 days post treatment; for curative efficacy in the T. c.-infected mouse model: single dose of 10 mg/kg
Method: (§3) Selected compounds were screened in both mouse and bovine in vitro metabolic stability assays (mouse S9 and bovine S9), as summarized in Table 2. These two species were chosen because the primary in vivo assays were conducted in mice, and the target animal of this research program is cattle. […] We evaluated the efficacy of selected compounds in two in vivo mouse models of infection, against T. congolense and T. vivax, respectively. Mice were infected with either 1 × 10^5 T. c. parasites or 1 × 10^4 T. v. parasites, and then treated with a test compound via intraperitoneal administration for 1, 2 or 4 consecutive days. The mice were then monitored for the presence of parasitemia for up to 60 days post treatment.[7] We tested in T. c. model first, then followed up with T. v. for interesting compounds. […] We selected compound 5 (AN11736) to progress to exploratory studies to determine the efficacy and safety in a preliminary formulation against induced infections of T. vivax and T. congolense in cattle.[8]
(§4) [7] Methods for testing compound efficacy in mouse models: In vivo mouse efficacy studies were performed at the Swiss TPH, using established mouse models of infection for T. c. and T. v. NMRI female mice were independently infected either with 1 × 10^5T. c. parasites/mouse (STIB736/IL1180 strain) or 1 × 10^4T. v. parasites/mouse (STIB719/ILRAD560 strain) using an intraperitoneal route. Parasitemia was allowed to develop over 7 days (T. c.) or 3 days (T. v.), respectively, before treatment was administered. Compounds were administered via intraperitoneal injection in 10% DMSO/water. Four mice were used per treatment group. Mice were monitored for the presence of trypanosomes, via tail blood examination microscopically with twice-per-week parasitemia checks for 60 days post treatment. Parasitemia was graded on a scale of 0–3, with 0 indicating no trypanosomes seen in 20 fields of view, 1 indicating the presence of 1–5 trypanosomes per field, 2 indicating the presence of 6–20 trypanosomes per field and 3 indicating greater than 20 trypanosomes per field. Mice scoring 2 or 3 were immediately euthanized. After 60 days, aparasitemic mice were considered cured. Untreated control mice survive on average for 10 and 6 days post infection for T. c. and T. v., respectively. All in vivo mouse experiments were conducted in accordance with the strict guidelines set out by the Swiss Federal Veterinary Office, under the ethical approval of license number #2813.

[3] = system: T. v. parasites (STIB719/ILRAD560 strain); experiment: In vivo mouse model of T. vivax infection; design: species or system NMRI female mice; details: for Efficacy in mouse model T. v., n/m (mice survived / total mice in group): intraperitoneal, monitored 60 days post treatment; for curative efficacy in the T. v.-infected mouse model: single dose of 10 mg/kg, IP
Method: as §3, §4

[4] = system: Trypanosoma congolense (T. congolense IL-3000 strain), bloodstream form; experiment: Whole cell Alamar Blue assay, T. congolense (72 h in vitro); type: cell-based; details: Trypanosoma congolense, 72 h, T. congolense IL-3000, 72 h in vitro Alamar Blue assay
Method: as §1, §2

[5] = In vitro metabolic stability, mouse S9; type: in vitro ADME; details: S9 fraction
Method: as §3

[6] = In vitro metabolic stability, bovine S9; type: in vitro ADME; details: S9 fraction
Method: as §3

SMILES	IC50 [1]	Efficacy in mouse model T. c., n/m (mice survived / total mice in group) ([2]; 2 × 10 mg/kg)	Efficacy in mouse model T. v., n/m (mice survived / total mice in group) ([3]; 1 × 10 mg/kg)	Efficacy in mouse model T. v., n/m (mice survived / total mice in group) ([3]; 4 × 10 mg/kg)	IC50 [4]	Efficacy in mouse model T. v., n/m (mice survived / total mice in group) ([3]; 2 × 10 mg/kg)	Efficacy in mouse model T. c., n/m (mice survived / total mice in group) ([2]; 1 × 5 mg/kg)	Efficacy in mouse model T. c., n/m (mice survived / total mice in group) ([2]; 1 × 10 mg/kg)	cure of T. c.-infected mice ([2]; single 5 mg/kg dose, IP)	microsomal CLint [5]	curative efficacy in the T. v.-infected mouse model [3]	microsomal CLint [6]	IC50 (nM) T. v. [1]	curative efficacy in the T. c.-infected mouse model ([2]; IP)
CC(C)[C@H](NC(=O)c1ccc2c(c1)B(O)OC2)C(=O)OCc1ccccc1 [Compound 2]	2 nM	0/5 (2 × 10)	1/5	5/5	2 nM	–	–	–	–	–	–	–	–	–
Cc1c(C(=O)N[C@H](C(=O)OCc2ccccc2)C(C)C)ccc2c1B(O)OC2 [Compound 4]	0.79 nM	4/5 (2 × 10)	4/4	–	0.46 nM	5/5	–	–	–	–	–	–	–	–
Cc1c(C(=O)N[C@H](C(=O)OCc2ccc(F)c(F)c2)C(C)C)ccc2c1B(O)OC2 [Compound 8]	0.07 nM	–	4/4 (1 × 10)	–	0.28 nM	–	0/4	4/4	unable to cure	7.9 µL/min/mg	100%	5.6 µL/min/mg	–	–
CC(C)[C@H](NC(=O)c1ccc2c(c1F)B(O)OC2)C(=O)OCc1ccc(F)cc1 [Compound 21]	–	1/4 (2 × 10)	–	–	28 nM	4/4 (2 × 10)	–	–	–	< 1 µL/min/mg	–	< 1 µL/min/mg	–	–
CCc1c(C(=O)N[C@H](C(=O)OCc2ccc(F)cc2)C(C)C)ccc2c1B(O)OC2 [Compound 24]	0.05 nM	1/4 (2 × 10)	–	–	0.11 nM	–	–	–	–	21 µL/min/mg	–	23 µL/min/mg	–	–
CC(C)c1c(C(=O)N[C@H](C(=O)OCc2ccc(F)cc2)C(C)C)ccc2c1B(O)OC2 [Compound 26]	0.05 nM	–	–	–	2.3 nM	–	–	0/4 (1 × 10)	–	32 µL/min/mg	–	32 µL/min/mg	–	–
Cc1c(C(=O)N[C@H](C(=O)OCc2ccc(F)cc2)C(C)(C)O)ccc2c1B(O)OC2 [Compound 29]	0.1 nM	–	–	–	0.26 nM	–	–	0/4 (1 × 10)	–	< 1 µL/min/mg	–	< 1 µL/min/mg	–	–
Cc1c(C(=O)NC(C(=O)OCc2ccc(F)cc2)C(C)(C)F)ccc2c1B(O)OC2 (stereo not drawn) [Compound 30]	0.25 nM	–	–	–	0.09 nM	–	–	0/4 (1 × 10)	–	3.7 µL/min/mg	–	3.1 µL/min/mg	–	–
Cc1c(C(=O)NC2(C(=O)OCc3ccc(F)cc3)CC2)ccc2c1B(O)OC2 [Compound 31]	18 nM	–	–	–	0.13 nM	–	–	0/4 (1 × 10)	–	< 1 µL/min/mg	–	< 1 µL/min/mg	decreased activity	–
Cc1c(C(=O)N[C@H](C(=O)OCc2ccc(C(F)(F)F)nc2)C(C)C)ccc2c1B(O)OC2 [Compound 33]	26 nM	–	4/4 (1 × 10)	–	0.28 nM	–	–	3/4 (1 × 10)	–	6.3 µL/min/mg	100%	2 µL/min/mg	–	–
Cc1c(C(=O)N[C@H](C(=O)OCc2ccc(C(F)(F)F)cn2)C(C)C)ccc2c1B(O)OC2 [Compound 34]	0.07 nM	–	4/4 (1 × 10)	–	0.14 nM	–	–	2/4 (1 × 10)	–	11.8 µL/min/mg	100%	4.8 µL/min/mg	–	≥ 50%
Cc1c(C(=O)N[C@H](C(=O)OCc2ccc(F)cn2)C(C)C)ccc2c1B(O)OC2 [Compound 35]	0.09 nM	–	–	–	0.15 nM	–	–	0/4 (1 × 10)	–	5.2 µL/min/mg	–	7.8 µL/min/mg	–	–
Cc1c(C(=O)N[C@H](C(=O)OCc2cnccn2)C(C)C)ccc2c1B(O)OC2 [Compound 39]	0.24 nM	–	–	–	0.57 nM	–	–	0/4 (1 × 10)	–	1.6 µL/min/mg	–	3.9 µL/min/mg	–	–
Cc1c(C(=O)N[C@H](C(=O)OCc2nccc(C(F)(F)F)n2)C(C)C)ccc2c1B(O)OC2 [Compound 41]	0.11 nM	–	–	–	0.78 nM	–	–	0/4 (1 × 10)	–	1.3 µL/min/mg	–	1.8 µL/min/mg	–	–
Cc1c(C(=O)N[C@H](C(=O)OCc2ccc3ncccc3c2)C(C)C)ccc2c1B(O)OC2 [Compound 46]	0.24 nM	–	–	–	0.42 nM	–	–	1/4 (1 × 10)	–	7.4 µL/min/mg	–	7 µL/min/mg	–	–
Cc1c(C(=O)N[C@H](C(=O)OCc2cnc3ccccc3n2)C(C)C)ccc2c1B(O)OC2 [Compound 47]	0.081 nM	–	–	–	0.2 nM	–	–	0/4 (1 × 10)	–	4.8 µL/min/mg	–	10 µL/min/mg	–	–
Cc1c(C(=O)N[C@H](C(=O)OCc2ncc3ccccc3n2)C(C)C)ccc2c1B(O)OC2 [Compound 48]	0.71 nM	–	–	–	< 0.005 nM	–	–	1/4 (1 × 10)	–	4 µL/min/mg	–	23 µL/min/mg	–	–
Cc1c(C(=O)N[C@H](C(=O)OCc2ccc(OCCN3CCCC3)cc2)C(C)C)ccc2c1B(O)OC2 [Compound 49]	68 nM	–	4/4 (1 × 10)	–	0.39 nM	–	–	2/4 (1 × 10)	–	1.5 µL/min/mg	100%	4 µL/min/mg	–	≥ 50%
Cc1c(C(=O)N[C@H](C(=O)OCc2cccc(CN3CCN(C)CC3)c2)C(C)C)ccc2c1B(O)OC2 [Compound 52]	0.29 nM	–	–	–	1.3 nM	–	–	0/4 (1 × 10)	–	1.8 µL/min/mg	–	6 µL/min/mg	–	–
Cc1c(C(=O)N[C@H](C(=O)OCc2cccc(CN3CCOCC3)c2)C(C)C)ccc2c1B(O)OC2 [Compound 53]	0.35 nM	–	–	–	0.51 nM	–	–	0/4 (1 × 10)	–	5.4 µL/min/mg	–	6.8 µL/min/mg	–	–
Cc1c(C(=O)N[C@H](C(=O)OCc2ccc(S(=O)(=O)N3CCN(C)CC3)cc2)C(C)C)ccc2c1B(O)OC2 [Compound 54]	0.37 nM	–	–	–	1 nM	–	–	0/4 (1 × 10)	–	5.5 µL/min/mg	–	3.8 µL/min/mg	–	–
COC(=O)[C@@H](NC(=O)c1ccc2c(c1C)B(O)OC2)C(C)C [Compound 55]	3.3 nM	–	–	–	4.2 nM	–	–	0/4 (1 × 10)	–	< 1 µL/min/mg	–	3.1 µL/min/mg	–	–
